Test results as given in patent US10472344B2, “Factor XIa inhibitors” (MERCK SHARP & DOHME CORP., priority 2015, dated 2019).

Experiments:
[1] = molecular target: purified human Factor XIa (Homo sapiens (Human), UniProt P03951); assay: Factor XIa Assay; assay type: biochemical; details: fluorogenic substrate Z-Gly-Pro-Arg-AFC, 40 pM enzyme, pH 7.4; read-out: Human FXIa Ki
Procedure: (§1) The effectiveness of a compound of the present invention as an inhibitor of Coagulation Factor XIa can be determined using a relevant purified serine protease, and an appropriate synthetic substrate. The rate of hydrolysis of the chromogenic or fluorogenic substrate by the relevant serine protease was measured both in the absence and presence of compounds of the present invention. Assays were conducted at room temperature or at 37° C. […] A decrease in the rate of fluorescence change in the presence of inhibitor is indicative of enzyme inhibition. Such methods are known to one skilled in the art. The results of this assay are expressed as the inhibitory constant, Ki.
Factor XIa determinations were made in 50 mM HEPES buffer at pH 7.4 containing 150 mM NaCl, 5 mM CaCl2, and 0.1% PEG 8000 (polyethylene glycol; JT Baker or Fisher Scientific). Determinations were made using purified human Factor XIa at a final concentration of 40 pM (Sekisui Diagnostics) and he synthetic substrate, Z-Gly-Pro-Arg-AFC, TFA salt (Sigma #C0980) at a concentration of […].
Activity assays were performed by diluting a stock solution of substrate at least tenfold to a final concentration ≤0.1 Km into a solution containing enzyme or enzyme equilibrated with inhibitor. Times required to achieve equilibration between enzyme and inhibitor were determined in control experiments. Initial velocities of product formation in the absence (V0) or presence of inhibitor (V1) were measured. Assuming competitive inhibition, and that unity is negligible compared Km/[S], [I]/e, and [I]/e (where [S], [I], and e respectively represent the total concentrations, of substrate, inhibitor and enzyme), the equilibrium constant (Ki) for dissociation of the inhibitor from the enzyme can be obtained from the dependence of V0/Vi on [I] shown in the following equation. V0/Vi=1+[I]/Ki

[2] = molecular target: purified Human plasma kallikrein (Homo sapiens (Human), UniProt P03952); assay: Kallikrein Assay; assay type: biochemical; details: fluorogenic substrate Acetyl-K-P-R-AFC, 0.5 nM enzyme, pH 7.4; Ki from IC50 by Cheng Prusoff
Procedure: as §1, with “Kallikrein” for “Coagulation Factor XIa”
Kallikrein determinations were made in 50 mM HEPES buffer at pH 7.4 containing 150 mM NaCl, 5 mM CaCl2, and 0.1% PEG 8000 (polyethylene glycol; Fisher Scientific). Determinations were made using purified Human plasma kallikrein at a final concentration of 0.5 nM (Enzyme Research Laboratories) and the synthetic substrate, Acetyl-K-P-R-AFC (Sigma #C6608) at a concentration of […].
Activity assays were performed by diluting a stock solution of substrate at least tenfold to a final concentration≤0.2 Km into a solution containing enzyme or enzyme equilibrated with inhibitor. Times required to achieve equilibration between enzyme and inhibitor were determined in control experiments. The reactions were performed under linear progress curve conditions and fluorescence increase measured at 405 Ex/510 Em nm. Values were converted to percent inhibition of the control reaction (after subtracting 100% Inhibition value). IC50 was determined by inflection point from a four parameter logistic curve fit. Ki was calculated using the Cheng Prusoff equation, Ki=IC50/(1+([S]/Km)).

Chain of purified human Factor XIa (P03951 388-625): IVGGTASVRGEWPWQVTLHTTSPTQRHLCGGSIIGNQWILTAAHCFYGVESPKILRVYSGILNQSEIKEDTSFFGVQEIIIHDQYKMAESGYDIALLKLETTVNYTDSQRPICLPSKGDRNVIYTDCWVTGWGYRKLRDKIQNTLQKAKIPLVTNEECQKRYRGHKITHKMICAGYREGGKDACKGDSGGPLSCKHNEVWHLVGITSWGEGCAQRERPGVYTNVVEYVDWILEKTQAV
Chain of purified human Factor XIa (P03951 19-387 partner): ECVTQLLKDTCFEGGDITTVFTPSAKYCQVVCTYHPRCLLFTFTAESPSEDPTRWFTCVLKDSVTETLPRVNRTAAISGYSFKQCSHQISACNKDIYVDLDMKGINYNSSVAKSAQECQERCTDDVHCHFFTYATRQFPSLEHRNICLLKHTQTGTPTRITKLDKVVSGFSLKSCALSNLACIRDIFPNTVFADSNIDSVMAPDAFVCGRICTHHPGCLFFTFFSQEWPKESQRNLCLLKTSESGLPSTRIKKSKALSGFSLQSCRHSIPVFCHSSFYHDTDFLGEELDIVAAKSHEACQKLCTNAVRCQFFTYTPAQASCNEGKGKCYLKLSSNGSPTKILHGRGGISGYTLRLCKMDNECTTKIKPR
Chain of purified Human plasma kallikrein (P03952 391-638): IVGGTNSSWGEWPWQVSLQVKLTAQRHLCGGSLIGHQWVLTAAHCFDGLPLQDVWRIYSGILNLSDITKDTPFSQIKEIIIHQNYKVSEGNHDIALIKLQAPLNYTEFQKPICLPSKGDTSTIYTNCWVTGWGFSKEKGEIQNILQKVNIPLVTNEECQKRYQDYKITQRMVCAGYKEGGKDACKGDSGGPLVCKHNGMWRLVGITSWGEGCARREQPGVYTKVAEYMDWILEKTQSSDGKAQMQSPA
Chain of purified Human plasma kallikrein (P03952 20-390 partner): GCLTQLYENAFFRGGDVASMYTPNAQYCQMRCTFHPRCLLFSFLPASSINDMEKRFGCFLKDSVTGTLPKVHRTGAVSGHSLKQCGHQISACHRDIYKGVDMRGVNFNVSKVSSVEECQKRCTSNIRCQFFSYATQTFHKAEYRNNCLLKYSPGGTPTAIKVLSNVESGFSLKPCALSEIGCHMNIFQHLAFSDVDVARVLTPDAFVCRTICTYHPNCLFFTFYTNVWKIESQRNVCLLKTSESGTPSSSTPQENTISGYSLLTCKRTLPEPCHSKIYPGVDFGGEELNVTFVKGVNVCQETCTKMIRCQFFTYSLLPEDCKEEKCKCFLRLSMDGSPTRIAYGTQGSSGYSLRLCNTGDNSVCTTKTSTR

SMILES	Ki [1]	Ki [2]
Nc1n[nH]c2cc(C(=O)N[C@@H](Cc3ccccc3)c3ccc(-c4cc(Cl)ccc4-n4cnnn4)c[n+]3[O-])ccc12 [Example 1, (S)-2-(1-(3-AMMONIO-1H-INDAZOLE-6-CARBOXAMIDO)-2-PHENYLETHYL)-5-(5-CHLORO-2-(1H-TETRAZOL-1-YL)PHENYL)PYRIDINE 1-OXIDE 2,2,2-TRIFLUOROACETATE]	0.9 nM	25 nM
COC(=O)Nc1ccc(C(=O)N[C@@H](Cc2ccccc2)c2ccc(-c3cc(Cl)ccc3-n3cnnn3)c[n+]2[O-])cc1 [Example 2, (S)-5-(5-chloro-2-(1H-tetrazol-1-yl)phenyl)-2-(1-(4-((methoxycarbonyl)amino)benzamido)-2-phenylethyl)pyridine 1-oxide]	3.6 nM	105 nM
COC(=O)Nc1cccc(C(=O)NC(Cc2ccccc2)c2ccc(-c3cc(Cl)ccc3-n3cnnn3)c[n+]2[O-])c1 (stereo not drawn) [Example 3]	144 nM	–
NC(=O)c1ccc(C(=O)N[C@@H](Cc2ccccc2)c2ccc(-c3cc(Cl)ccc3-n3cnnn3)c[n+]2[O-])s1 [Example 4]	1.3 nM	36 nM
O=C(O)c1ccc(C(=O)NC(Cc2ccccc2)c2ccc(-c3cc(Cl)ccc3-n3cnnn3)c[n+]2[O-])cc1 (stereo not drawn) [Example 5]	83 nM	–
O=C(O)c1ccc(C(=O)N[C@@H](Cc2ccccc2)c2ccc(-c3cc(Cl)ccc3-n3cnnn3)c[n+]2[O-])s1 [Example 6]	6.9 nM	219 nM
COCC(=O)Nc1ccc(C(=O)N[C@@H](Cc2ccccc2)c2ccc(-c3cc(Cl)ccc3-n3cnnn3)c[n+]2[O-])cc1 [Example 7]	20 nM	516 nM
